Reference: ChEMBL document CHEMBL1144752, “Synthesis and antioxidant properties of novel N-methyl-1,3,4-thiadiazol-2-amine and 4-methyl-2H-1,2,4-triazole-3(4H)-thione derivatives of benzimidazole class” (Bioorg Med Chem, 2008)
Calls of active or inactive are those of the source. No cut-off for these calls is given here.

Experiments:
Liver microsomes [1] = test: Antioxidant activity in rat liver microsomes assessed as inhibition of ethoxyresorufin O-deethylase activity at 1000 uM; assay type: functional; settings: Microsome
Liver microsomes [2] = test: Antioxidant activity in albino Wistar rat liver microsomes assessed as inhibition of NADPH-dependent lipid peroxidation at 1000 uM; assay type: functional; settings: Microsome
[3] = test system: Radical scavenging activity; test: Antioxidant activity assessed as DPPH free radical scavenging activity after 30 mins; assay type: functional
[4] = Antioxidant activity assessed as inhibition of superoxide radical anion formation at 0.1 mM; assay type: functional
Liver microsomes [5] = test: Antioxidant activity in rat liver microsomes assessed as inhibition of ethoxyresorufin O-deethylase activity; assay type: functional, Microsome

SMILES | Activity (Liver microsomes [1]) [pmol/mg/min] | Activity (Liver microsomes [2]) [nmol/mg/min] | IC50 [3] [µM] | inhibition [4] [%] | inhibition (Liver microsomes [2]) [%] | inhibition (Liver microsomes [1]) [%] | IC50 (Liver microsomes [5]) [µM] | Activity [4]
CNc1nnc(Cn2c(-c3ccc(O)cc3)nc3ccccc32)s1 | 36.1 | 129 | > 1000 | 5 |  |  |  | 
Cn1c(Cn2c(-c3ccc(OCc4ccccc4)cc3)nc3ccccc32)n[nH]c1=S | 18 | 69.6 | 605 | 5 |  |  |  | 
CNc1nnc(Cn2c(-c3ccc(Cl)cc3)nc3ccccc32)s1 | 2.46 | 16.1 |  | 21 |  |  |  | 
CNc1nnc(Cn2c(-c3ccc(OC)cc3)nc3ccccc32)s1 | 34.3 | 14.4 | > 1000 | 5 | 11 |  |  | 
Cn1c(Cn2c(-c3ccc(Cl)cc3)nc3ccccc32)n[nH]c1=S | 7.89 | 26.6 | 462 |  |  | 81 | 450 | inactive
COc1ccc(NC(=S)NNC(=O)Cn2c(-c3ccncc3)nc3ccccc32)cc1 |  |  | 12 |  |  |  |  | 
CNC(=S)NNC(=O)Cn1c(-c2ccccc2)nc2ccccc21 | 51 | 19.2 | 26 | 22 |  |  |  | 
CNC(=S)NNC(=O)Cn1c(-c2ccc(OC)cc2)nc2ccccc21 | 34.5 | 16.1 | 43 |  |  |  |  | inactive
Cc1cc(C(C)(C)C)c(O)c(C(C)(C)C)c1 [BUTYLATED HYDROXYTOLUENE] |  | 5.68 | 54 |  |  |  |  | 
CNC(=S)NNC(=O)Cn1c(-c2ccc(OCc3ccccc3)cc2)nc2ccccc21 | 28.6 | 96.6 | 74 | 5 |  |  |  | 
CNC(=S)NNC(=O)Cn1c(-c2ccc(Cl)cc2)nc2ccccc21 | 28.3 | 13.1 | 30 | 38 | 20 |  |  | 
Cn1c(=O)c2c(ncn2C)n(C)c1=O [CAFFEINE] | 8.31 |  |  |  |  | 80 | 520 | 
CNC(=S)NNC(=O)Cn1c(-c2ccc(OC)c(OC)c2)nc2cc(Cl)c(Cl)cc21 | 12.3 | 14.8 | 55 | 26 |  | 70 | 840 | 
COc1ccc(-c2nc3cc(Cl)c(Cl)cc3n2Cc2n[nH]c(=S)n2C)cc1OC | 18.3 | 27.5 | 271 |  |  |  |  | inactive
COc1ccc(-c2nc3ccccc3n2Cc2n[nH]c(=S)n2C)cc1 | 15.8 | 23.1 | 140 | 5 |  |  |  | 
O=C(Cn1c(-c2ccncc2)nc2ccccc21)NNC(=S)Nc1ccccc1 |  |  | 13 |  |  |  |  | 
CNc1nnc(Cn2c(-c3ccc(OC)c(OC)c3)nc3cc(Cl)c(Cl)cc32)s1 | 12.2 | 11.8 | > 1000 | 31 | 28 | 66 |  | 
